Data reported in paper PMC10176470, “Engaging a Non-catalytic Cysteine Residue Drives Potent and Selective Inhibition of Caspase-6” (Journal of the American Chemical Society, 2023).

Key:
Format in all cases: cell-based
[1] = target: proteins of HEK293T cells transiently overexpressing caspase-6 (Homo sapiens, UniProt Q15084); conditions: exp_ref Probe; protein PDIA6 (Q15084); analysis C6
[2] = target: proteins of HEK293T cells transiently overexpressing caspase-6 (Homo sapiens, UniProt P13667); conditions: Probe; protein PDIA4 P13667
[3] = target: T1, proteins of HEK293T cells transiently overexpressing caspase-6 (Homo sapiens, UniProt O00410); conditions: protein IPO5 (O00410)
T1 sequence (O00410 1-1097): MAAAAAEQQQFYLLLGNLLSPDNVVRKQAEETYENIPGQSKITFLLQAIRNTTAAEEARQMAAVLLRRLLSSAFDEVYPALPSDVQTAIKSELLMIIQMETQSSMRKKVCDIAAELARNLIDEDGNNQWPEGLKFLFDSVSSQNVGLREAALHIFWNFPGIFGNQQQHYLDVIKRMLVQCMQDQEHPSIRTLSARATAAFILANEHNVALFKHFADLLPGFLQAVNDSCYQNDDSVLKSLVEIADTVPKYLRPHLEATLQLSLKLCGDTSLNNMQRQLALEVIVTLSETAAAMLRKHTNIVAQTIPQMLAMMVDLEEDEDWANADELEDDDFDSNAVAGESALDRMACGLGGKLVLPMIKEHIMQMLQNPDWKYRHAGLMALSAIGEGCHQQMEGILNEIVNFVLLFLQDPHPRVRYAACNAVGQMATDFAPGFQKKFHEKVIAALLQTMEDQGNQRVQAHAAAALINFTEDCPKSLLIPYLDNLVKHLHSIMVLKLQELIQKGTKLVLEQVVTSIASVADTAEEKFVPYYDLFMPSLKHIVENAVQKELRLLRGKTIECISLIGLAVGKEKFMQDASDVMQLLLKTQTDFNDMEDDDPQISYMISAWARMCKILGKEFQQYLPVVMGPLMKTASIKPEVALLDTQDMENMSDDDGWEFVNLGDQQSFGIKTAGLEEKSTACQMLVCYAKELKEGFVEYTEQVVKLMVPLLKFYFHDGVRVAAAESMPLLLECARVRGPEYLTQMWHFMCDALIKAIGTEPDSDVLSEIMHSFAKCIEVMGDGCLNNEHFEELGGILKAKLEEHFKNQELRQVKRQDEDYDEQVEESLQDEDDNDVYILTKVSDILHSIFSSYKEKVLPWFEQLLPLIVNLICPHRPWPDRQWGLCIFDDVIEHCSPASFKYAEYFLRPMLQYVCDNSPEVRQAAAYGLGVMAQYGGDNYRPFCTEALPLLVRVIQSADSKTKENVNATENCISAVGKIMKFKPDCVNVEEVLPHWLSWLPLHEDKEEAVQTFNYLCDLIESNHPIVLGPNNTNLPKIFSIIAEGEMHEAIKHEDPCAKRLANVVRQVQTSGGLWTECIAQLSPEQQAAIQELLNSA

[4] = target: proteins of HEK293T cells transiently overexpressing caspase-6 (Homo sapiens, UniProt P31930); conditions: Probe; protein UQCRC1 P31930
[5] = target: proteins of HEK293T cells transiently overexpressing caspase-6 (Homo sapiens, UniProt P22102); conditions: exp_ref Probe; protein GART (P22102); analysis C6
[6] = target: proteins of HEK293T cells transiently overexpressing caspase-6 (Homo sapiens, UniProt P62633); conditions: exp_ref Probe; protein CNBP (P62633); analysis C6
[7] = target: proteins of HEK293T cells transiently overexpressing caspase-6 (Homo sapiens, UniProt Q02790); conditions: exp_ref Probe; protein FKBP4 (Q02790); analysis C6
[8] = target: proteins of HEK293T cells transiently overexpressing caspase-6 (Homo sapiens, UniProt P02533); conditions: Probe; protein KRT14 P02533
[9] = target: proteins of HEK293T cells transiently overexpressing caspase-6 (Homo sapiens, UniProt P35232); conditions: Probe; protein PHB P35232
[10] = target: T2, proteins of HEK293T cells transiently overexpressing caspase-6 (Homo sapiens, UniProt P09936); conditions: protein UCHL1 (P09936)
T2 sequence (P09936 1-223): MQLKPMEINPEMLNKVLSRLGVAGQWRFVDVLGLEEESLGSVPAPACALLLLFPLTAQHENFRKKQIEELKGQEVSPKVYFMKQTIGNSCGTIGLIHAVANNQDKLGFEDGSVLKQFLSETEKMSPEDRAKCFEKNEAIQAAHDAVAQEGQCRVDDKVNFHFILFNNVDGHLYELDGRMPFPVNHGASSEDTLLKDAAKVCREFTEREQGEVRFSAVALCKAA

Sequence of proteins of HEK293T cells transiently overexpressing caspase-6 (Homo sapiens, UniProt P35232) (P35232 whole entry): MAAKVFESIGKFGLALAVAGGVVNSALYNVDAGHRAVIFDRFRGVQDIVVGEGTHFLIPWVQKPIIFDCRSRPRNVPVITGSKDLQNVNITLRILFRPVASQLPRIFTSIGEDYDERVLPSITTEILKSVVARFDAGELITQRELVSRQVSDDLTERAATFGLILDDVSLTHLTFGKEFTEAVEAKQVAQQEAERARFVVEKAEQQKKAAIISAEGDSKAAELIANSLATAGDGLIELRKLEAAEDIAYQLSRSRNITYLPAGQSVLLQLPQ
Sequence of proteins of HEK293T cells transiently overexpressing caspase-6 (Homo sapiens, UniProt Q15084) (Q15084 20-440): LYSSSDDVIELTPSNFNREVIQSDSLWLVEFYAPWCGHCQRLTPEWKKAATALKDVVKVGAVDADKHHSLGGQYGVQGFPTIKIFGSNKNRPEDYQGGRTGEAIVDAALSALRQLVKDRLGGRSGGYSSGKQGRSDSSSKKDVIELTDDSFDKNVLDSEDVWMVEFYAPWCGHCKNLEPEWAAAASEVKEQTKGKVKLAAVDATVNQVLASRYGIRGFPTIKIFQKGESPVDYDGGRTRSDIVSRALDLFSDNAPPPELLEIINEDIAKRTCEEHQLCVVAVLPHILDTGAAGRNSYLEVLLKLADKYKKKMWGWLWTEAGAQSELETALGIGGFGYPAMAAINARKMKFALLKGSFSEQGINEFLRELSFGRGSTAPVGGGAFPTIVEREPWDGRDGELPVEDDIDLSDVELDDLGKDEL
Sequence of proteins of HEK293T cells transiently overexpressing caspase-6 (Homo sapiens, UniProt P13667) (P13667 21-645): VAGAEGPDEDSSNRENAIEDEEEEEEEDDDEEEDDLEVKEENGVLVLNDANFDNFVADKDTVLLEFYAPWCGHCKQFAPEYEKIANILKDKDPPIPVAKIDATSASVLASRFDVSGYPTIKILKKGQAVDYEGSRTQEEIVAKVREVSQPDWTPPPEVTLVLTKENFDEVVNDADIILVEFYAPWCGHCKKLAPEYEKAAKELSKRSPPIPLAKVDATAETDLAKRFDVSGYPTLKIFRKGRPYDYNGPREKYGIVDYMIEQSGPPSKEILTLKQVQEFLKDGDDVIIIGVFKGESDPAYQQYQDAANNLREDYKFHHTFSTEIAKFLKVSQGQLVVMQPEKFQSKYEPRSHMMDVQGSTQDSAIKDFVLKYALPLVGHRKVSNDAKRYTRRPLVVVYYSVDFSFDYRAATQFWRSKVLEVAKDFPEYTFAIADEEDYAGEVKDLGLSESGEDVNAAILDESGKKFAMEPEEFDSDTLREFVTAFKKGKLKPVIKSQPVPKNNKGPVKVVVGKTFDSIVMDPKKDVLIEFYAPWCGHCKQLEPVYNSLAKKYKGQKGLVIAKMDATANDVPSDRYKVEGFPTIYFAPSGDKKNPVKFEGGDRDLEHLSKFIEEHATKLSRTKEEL
Sequence of proteins of HEK293T cells transiently overexpressing caspase-6 (Homo sapiens, UniProt P31930) (P31930 35-480): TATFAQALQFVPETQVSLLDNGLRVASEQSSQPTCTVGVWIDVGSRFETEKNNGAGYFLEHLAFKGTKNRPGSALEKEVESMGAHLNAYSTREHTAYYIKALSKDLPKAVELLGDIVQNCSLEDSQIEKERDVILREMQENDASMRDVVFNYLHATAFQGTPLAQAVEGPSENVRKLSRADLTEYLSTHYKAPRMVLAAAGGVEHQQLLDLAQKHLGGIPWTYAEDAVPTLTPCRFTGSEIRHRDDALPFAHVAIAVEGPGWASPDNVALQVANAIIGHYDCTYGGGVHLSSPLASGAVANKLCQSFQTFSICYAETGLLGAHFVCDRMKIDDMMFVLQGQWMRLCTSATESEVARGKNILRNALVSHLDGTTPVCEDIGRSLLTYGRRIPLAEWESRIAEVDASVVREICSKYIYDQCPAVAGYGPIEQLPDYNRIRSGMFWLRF
Sequence of proteins of HEK293T cells transiently overexpressing caspase-6 (Homo sapiens, UniProt P22102) (P22102 whole entry): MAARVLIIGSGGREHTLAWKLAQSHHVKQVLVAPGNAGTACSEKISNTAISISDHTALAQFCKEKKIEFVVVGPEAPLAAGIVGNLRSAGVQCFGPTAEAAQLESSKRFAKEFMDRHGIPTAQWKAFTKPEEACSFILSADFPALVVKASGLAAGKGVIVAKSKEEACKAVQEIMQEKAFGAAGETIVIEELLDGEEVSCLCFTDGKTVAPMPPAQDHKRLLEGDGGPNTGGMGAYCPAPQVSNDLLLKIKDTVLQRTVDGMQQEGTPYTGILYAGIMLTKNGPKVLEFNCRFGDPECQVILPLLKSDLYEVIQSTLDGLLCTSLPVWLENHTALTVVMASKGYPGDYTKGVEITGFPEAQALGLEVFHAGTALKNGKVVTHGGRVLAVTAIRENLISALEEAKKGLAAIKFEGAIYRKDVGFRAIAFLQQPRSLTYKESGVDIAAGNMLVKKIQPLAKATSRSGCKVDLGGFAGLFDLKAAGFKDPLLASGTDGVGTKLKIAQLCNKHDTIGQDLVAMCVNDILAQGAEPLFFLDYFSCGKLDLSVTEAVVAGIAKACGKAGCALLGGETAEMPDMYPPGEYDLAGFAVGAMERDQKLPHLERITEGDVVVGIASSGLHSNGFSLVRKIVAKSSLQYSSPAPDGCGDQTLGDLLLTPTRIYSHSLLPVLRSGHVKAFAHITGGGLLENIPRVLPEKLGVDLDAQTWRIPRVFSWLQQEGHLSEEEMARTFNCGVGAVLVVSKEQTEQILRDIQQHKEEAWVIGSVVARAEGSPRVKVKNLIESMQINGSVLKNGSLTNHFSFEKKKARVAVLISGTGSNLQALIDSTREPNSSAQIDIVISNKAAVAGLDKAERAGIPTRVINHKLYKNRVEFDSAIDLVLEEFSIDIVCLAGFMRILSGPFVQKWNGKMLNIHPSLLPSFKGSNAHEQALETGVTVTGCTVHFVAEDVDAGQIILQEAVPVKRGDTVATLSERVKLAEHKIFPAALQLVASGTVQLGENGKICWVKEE
Sequence of proteins of HEK293T cells transiently overexpressing caspase-6 (Homo sapiens, UniProt P02533) (P02533 whole entry): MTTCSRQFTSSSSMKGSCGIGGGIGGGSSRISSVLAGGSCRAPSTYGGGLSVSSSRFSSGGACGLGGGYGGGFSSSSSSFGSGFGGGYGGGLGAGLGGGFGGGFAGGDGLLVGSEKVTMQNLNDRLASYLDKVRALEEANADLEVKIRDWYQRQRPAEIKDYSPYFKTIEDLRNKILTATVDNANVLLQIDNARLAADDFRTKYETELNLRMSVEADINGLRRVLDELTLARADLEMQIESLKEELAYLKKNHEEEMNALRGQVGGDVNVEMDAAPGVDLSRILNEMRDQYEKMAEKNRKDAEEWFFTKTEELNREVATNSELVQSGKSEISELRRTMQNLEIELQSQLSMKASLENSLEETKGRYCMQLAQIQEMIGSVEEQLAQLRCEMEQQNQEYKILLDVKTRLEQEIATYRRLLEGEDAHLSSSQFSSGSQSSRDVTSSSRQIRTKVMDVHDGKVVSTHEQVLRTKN
Sequence of proteins of HEK293T cells transiently overexpressing caspase-6 (Homo sapiens, UniProt P62633) (P62633 whole entry): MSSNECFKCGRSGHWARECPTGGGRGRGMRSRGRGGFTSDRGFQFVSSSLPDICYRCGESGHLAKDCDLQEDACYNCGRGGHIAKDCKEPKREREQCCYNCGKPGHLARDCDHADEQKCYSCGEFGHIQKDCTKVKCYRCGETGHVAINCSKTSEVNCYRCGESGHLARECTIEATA
Sequence of proteins of HEK293T cells transiently overexpressing caspase-6 (Homo sapiens, UniProt Q02790) (Q02790 whole entry): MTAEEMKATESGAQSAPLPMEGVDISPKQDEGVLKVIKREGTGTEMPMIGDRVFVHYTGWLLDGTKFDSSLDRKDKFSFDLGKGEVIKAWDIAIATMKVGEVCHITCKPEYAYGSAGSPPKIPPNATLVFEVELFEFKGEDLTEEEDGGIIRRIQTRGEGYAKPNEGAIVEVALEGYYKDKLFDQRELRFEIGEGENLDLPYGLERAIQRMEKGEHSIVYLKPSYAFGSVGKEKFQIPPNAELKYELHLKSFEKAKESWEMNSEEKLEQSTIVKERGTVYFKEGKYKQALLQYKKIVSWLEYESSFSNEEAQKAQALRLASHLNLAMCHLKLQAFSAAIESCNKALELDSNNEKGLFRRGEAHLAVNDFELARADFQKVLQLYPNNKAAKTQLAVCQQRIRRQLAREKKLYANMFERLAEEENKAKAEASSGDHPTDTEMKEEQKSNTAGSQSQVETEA

## C#CCOc1ccc([C@@H]2C[C@@H](C(=O)Nc3ccc(OC(F)(F)F)cc3)CN(S(=O)(=O)C=C)C2)cc1 (relative stereo) [13-t]
[1]
  enrich.exp.med: 0.9602
[2]
  enrich.exp.med: -0.4487
[3]; exp_ref Probe, analysis C6
  enrich.exp.med: 0.788
[3]
  enrich.exp.med.lin: 1.727
  enrich.exp.med.log2: 0.788
[4]
  enrich.exp.med: -0.9693
[5]
  enrich.exp.med: 0.2203
[6]
  enrich.exp.med: -0.4177
[7]
  enrich.exp.med: 0.8165
[8]
  enrich.exp.med: -2.018
[9]
  enrich.exp.med: -1.532
[10]
  enrich.exp.med.lin: 3.454
  enrich.exp.med.log2: 1.788
[10]; exp_ref Probe, analysis C6
  enrich.exp.med: 1.788
